Results on seven compounds are retold here after patent publication US9802982B2, “Peptide and uses thereof” (Tunghai University, priority 2014, dated 2017).

Values after ≈ are worked out from the molar mass of the structure shown. Like-named read-outs stand apart in the source and are kept apart here. Where a SMILES comes first, the peptide text is derived from it. Where no end group is shown, it is not given here. [ ]: non-standard residue; d: D form. NMeW = CN[C@@H](Cc1c[nH]c2ccccc12)C(=O)O; NMeR = CN[C@@H](CCCNC(=N)N)C(=O)O

What all share (assay type): cell-based
The subject of data set [1] is Pseudomonas aeruginosa (ATCC27853). The procedure:
(§1) Three bacteria strains, Escherichia coli (ATCC 25922), Staphylococcus aureus (ATCC25923), and Pseudomon asaeruginosa (ATCC27853) were brought from the Food Industry Research and Development Institute, Hsinchu, Taiwan.
(§2) Each of the strain (0.1-0.2 mL) was inoculated on an agar gel medium (Merck, Whitehouse, Station, N.J., USA) and isolated into single colony by streak plate method. Each of the strain was spread evenly by a sterile L-shaped glass rod and incubated overnight. After that, the single colony on each agar gel medium was transferred to liquid LB medium (Merck, Whitehouse, Station, N.J., USA) and incubated at 37° C. in an incubator.
(§3) Each bacteria strain from example 6 was incubated to its mid-log phase at 37° C. in 2 mL Lysogeny broth (LB) in an incubator, wherein the mid-log phase of Escherichia coli is 4 hours, the mid-log phase of Staphylococcus aureus is 6 hours, and the mid-log phase of Pseudomonas aeruginosa is 8 hours. According to 0.5 McFarland Standard, the number of bacteria in a broth is 1×10^8 CFU/mL when the OD595 is 0.08-0.09. […] And then, the number of bacteria in each broth was diluted from 1×10^8 CFU/mL to […]. Finally, each broth has bacterial number of 5×10^5 CFU/mL in Mueller Hinton broth (MHB).
(§4) 199 μL of each of the foresaid diluted broth was respectively placed into a 96 well plate, and 1 μL of each peptide from example 5 was added into each well to incubate at 37° C. in an incubator for 16 hours. The OD595 of the coculture of each broth and each peptide was measured by a microplate spectrophotometer. In addition, the bacterial broth without the peptide served as positive control (PC), and the free broth MHB culture medium served as negative control (NC). The minimum inhibitory concentration (MIC90) of each peptide against each bacteria was measured according to the following equation, wherein A is the absorbance. MIC90≦[(Apeptide−ANC)(APC−ANC)]
(§5) In addition, to measure the minimum bactericidal concentration (MBC), 1 μL of each broth cocultured with the peptide was sprayed on a flat plate medium at 37° C. in an incubator for 24 hours. If the incubation result has no bacteria, the concentration of the reagent is MBC.

Data set [2] deals with Staphylococcus aureus (ATCC25923). The procedure:
as §1, §2, §3, §4, §5

For data set [3], the system named is Escherichia coli (ATCC 25922). The procedure: as §1, §2, §3, §4, §5
The test system of a further data set is human red blood cells. The experiment in a line: Hemolysis assay. As to the method: 1-3 mL human blood was centrifuged at 3000 rpm, 4° C. for 10 minutes. The supernatant was discarded. The remaining was washed with cold phosphate buffer saline (PBS) and centrifuged at 3000 rpm, 4° C. for 1 minute. The supernatant was discarded. The remaining red blood cells were washed and diluted as 2% red blood cell solution with cold PBS.
A mixture of 100 μL red blood cell solution and 100 μL PBS was served as a negative control. A mixture of 100 μL red blood cells solution and 100 μL 0.2% Triton X-100 was served as a positive control. The solution of peptide 1, peptide 2, peptide 3, peptide 5, and peptide 6 were respectively mixed with red blood cell solution with the same volume and incubated at 37° C. for 1 hour. After incubation, the mixture was centrifuged at 3000 rpm, 4° C. for 10 minutes. Each of the supernatant was collected to measure the absorbance at wavelength of 405 nm by an ELISA plate reader. The hemolysis of each peptide was calculated according to the following equation, wherein Abs represents the absorbance. [(Abspeptide−AbsPBS)/(AbsTriton X-100−AbsPBS)]×100

In data set [4] the test system is Pseudomonas aeruginosa (ATCC27853). As to the method:
as §1, §2, §3, §4
This is another data set of the same source.

In data set [5] the test system is Staphylococcus aureus (ATCC25923). The procedure: as §1, §2, §3, §4
The source holds these as a separate data set.

Data set [6] relates to Escherichia coli (ATCC 25922). As to the method:
as §1, §2, §3, §4
This is another data set of the same source.

[7] abbreviates: coculture plated on flat plate medium, 37° C., 24 hours, no bacteria.
Where [8] appears, read: 5×10^5 CFU/mL in MHB, 37° C., 16 hours, OD595.

For `CC(C)C[C@H](NC(=O)[C@H](Cc1c[nH]c2ccccc12)NC(=O)[C@@H](N)CCCCN)C(=O)N[C@@H](CCCNC(=N)N)C(=O)N[C@@H](CCCNC(=N)N)C(=O)N[C@H](C(=O)N(C)[C@@H](Cc1c[nH]c2ccccc12)C(=O)N[C@@H](CCCNC(=N)N)C(=O)N[C@@H](Cc1c[nH]c2ccccc12)C(=O)N[C@@H](Cc1c[nH]c2ccccc12)C(=O)N[C@@H](CCCNC(=N)N)C(N)=O)C(C)C` [peptide 1, KWLRRVMeWRWWR] (H-KWLRRV[NMeW]RWWR-NH2), the “Minimum bactericidal concentration (MBC99.9) Pseudomonas aeruginosa” value in data set [1] (ATCC27853, 24 h) is 10 µM (≈ 17.4 µg/mL). Also, the “Minimum bactericidal concentration (MBC99.9) Staphylococcus aureus” value in data set [2] (ATCC25923, 24 h) worked out at 40 µM (≈ 69.6 µg/mL). In data set [3] (ATCC 25922, 24 h), the “Minimum bactericidal concentration (MBC99.9) Escherichia coli” value was 20 µM (≈ 34.8 µg/mL). For the same compound, in the data set with human red blood cells, the “Hemolysis, comparison in words” value is reported as “significantly lower than the peptide 5”. In addition, the “Hemolysis (%)” value in the data set on human red blood cells (red cells of human, 1 h) was found to be 20.1%. Further, the “Minimum inhibitory concentration (MIC90) Pseudomonas aeruginosa” value in data set [4] (ATCC27853, 16 h) was determined as 10 µM (≈ 17.4 µg/mL). Besides, in data set [5] (ATCC25923, 16 h), the “Minimum inhibitory concentration (MIC90) Staphylococcus aureus” value was found to be 5 µM (≈ 8.71 µg/mL). Besides, the “Minimum inhibitory concentration (MIC90) Escherichia coli” value in data set [6] (ATCC 25922, 16 h) turned out to be 5 µM (≈ 8.71 µg/mL).
With `CC(C)C[C@H](NC(=O)[C@H](CCCNC(=N)N)NC(=O)[C@@H](N)CCCCN)C(=O)N[C@@H](CCCNC(=N)N)C(=O)N[C@@H](CCCNC(=N)N)C(=O)N[C@H](C(=O)N(C)[C@@H](Cc1c[nH]c2ccccc12)C(=O)N[C@@H](CCCNC(=N)N)C(=O)N[C@@H](Cc1c[nH]c2ccccc12)C(=O)N[C@@H](Cc1c[nH]c2ccccc12)C(=O)N[C@@H](CCCNC(=N)N)C(N)=O)C(C)C` [peptide 4, KRLRRVMeWRWWR] (H-KRLRRV[NMeW]RWWR-NH2; N-terminus assumed), the “Minimum bactericidal concentration (MBC99.9) Pseudomonas aeruginosa” value in data set [1] (ATCC27853, 24 h) stood at 20 µM (≈ 34.2 µg/mL). In data set [2] (ATCC25923, 24 h), the “Minimum bactericidal concentration (MBC99.9) Staphylococcus aureus” value stood at 10 µM (≈ 17.1 µg/mL). For the same compound, in data set [3] (ATCC 25922, 24 h), the “Minimum bactericidal concentration (MBC99.9) Escherichia coli” value was determined as 20 µM (≈ 34.2 µg/mL). In addition, the “Minimum inhibitory concentration (MIC90) Pseudomonas aeruginosa” value in data set [4] (ATCC27853, 16 h) was 20 µM (≈ 34.2 µg/mL). Besides, in data set [5] (ATCC25923, 16 h), the “Minimum inhibitory concentration (MIC90) Staphylococcus aureus” value was determined as 10 µM (≈ 17.1 µg/mL). Moreover, the “Minimum inhibitory concentration (MIC90) Escherichia coli” value in data set [6] (ATCC 25922, 16 h) is 20 µM (≈ 34.2 µg/mL).
As for `CC(C)C[C@H](NC(=O)[C@H](Cc1c[nH]c2ccccc12)NC(=O)[C@@H](N)CCCCN)C(=O)N[C@@H](CCCNC(=N)N)C(=O)N(C)[C@@H](CCCNC(=N)N)C(=O)N[C@H](C(=O)N[C@@H](Cc1c[nH]c2ccccc12)C(=O)N[C@@H](CCCNC(=N)N)C(=O)N[C@@H](Cc1c[nH]c2ccccc12)C(=O)N[C@@H](Cc1c[nH]c2ccccc12)C(=O)N[C@@H](CCCNC(=N)N)C(N)=O)C(C)C` [peptide 5, KWLRMeRVWRWWR] (H-KWLR[NMeR]VWRWWR-NH2), the “Hemolysis (%)” value with human red blood cells (red cells of human, 1 h) is on record as 44.9%.
As to “KWLRRPWRRWR-NH2 [peptide 2, KWLRRPWRRWR]”, the “Minimum bactericidal concentration (MBC99.9) Pseudomonas aeruginosa” value in data set [1] (setting [7]) was 20 µM. Moreover, the “Minimum bactericidal concentration (MBC99.9) Staphylococcus aureus” value in data set [2] (setting [7]) is 5 µM. Further, the “Minimum bactericidal concentration (MBC99.9) Escherichia coli” value in data set [3] (setting [7]) was determined as 10 µM. Further, the “Hemolysis, comparison in words” value in the data set on human red blood cells (comparison among the peptides of Table 4) is given as “the lowest”. Moreover, the “Minimum inhibitory concentration (MIC90) Pseudomonas aeruginosa” value in data set [4] (setting [8]) stood at 5 µM. Also, the “Minimum inhibitory concentration (MIC90) Staphylococcus aureus” value in data set [5] (setting [8]) was 2.5 µM. Moreover, the “Minimum inhibitory concentration (MIC90) Escherichia coli” value in data set [6] (setting [8]) was found to be 2.5 µM.
Turning to “KWLRRVWRWWR-NH2 [peptide 6, KWLRRVWRWWR]”, in data set [1] (ATCC27853, 24 h), the “Minimum bactericidal concentration (MBC99.9) Pseudomonas aeruginosa” value is 5 µM. Also, the “Minimum bactericidal concentration (MBC99.9) Staphylococcus aureus” value in data set [2] (ATCC25923, 24 h) was found to be 10 µM. In data set [3] (ATCC 25922, 24 h), the “Minimum bactericidal concentration (MBC99.9) Escherichia coli” value is 5 µM. For the same compound, the “Hemolysis (%)” value in the data set on human red blood cells (red cells of human, 1 h) stood at 70.7%. Further, the “Minimum inhibitory concentration (MIC90) Pseudomonas aeruginosa” value in data set [4] (ATCC27853, 16 h) worked out at 5 µM. In addition, in data set [5] (ATCC25923, 16 h), the “Minimum inhibitory concentration (MIC90) Staphylococcus aureus” value was found to be 5 µM. The “Minimum inhibitory concentration (MIC90) Escherichia coli” value in data set [6] (ATCC 25922, 16 h) turned out to be 5 µM.
As to “KWLRWVRRRWW-NH2 [peptide 3, KWLRWVRRRWW]”, the “Minimum bactericidal concentration (MBC99.9) Pseudomonas aeruginosa” value in data set [1] (ATCC27853, 24 h) worked out at 20 µM. In addition, in data set [2] (ATCC25923, 24 h), the “Minimum bactericidal concentration (MBC99.9) Staphylococcus aureus” value was 5 µM. Moreover, the “Minimum bactericidal concentration (MBC99.9) Escherichia coli” value in data set [3] (ATCC 25922, 24 h) amounted to 10 µM. In addition, the “Hemolysis, comparison in words” value in the data set with human red blood cells was “the lowest”. Moreover, in the data set on human red blood cells (red cells of human, 1 h), the “Hemolysis (%)” value was 3.4%. The “Minimum inhibitory concentration (MIC90) Pseudomonas aeruginosa” value in data set [4] (ATCC27853, 16 h) came out at 5 µM. Besides, in data set [5] (ATCC25923, 16 h), the “Minimum inhibitory concentration (MIC90) Staphylococcus aureus” value was 2.5 µM. In data set [6] (ATCC 25922, 16 h), the “Minimum inhibitory concentration (MIC90) Escherichia coli” value came to 2.5 µM.
With “Triton X-100 [Positive control, reference compound]”, in the data set with human red blood cells, the “Hemolysis (%)” value turned out to be 100%.
